According to patent US5340818A, “Methods and compositions for inhibiting tumor cell growth” (priority 1993, dated 1994):
Values joined by “and” are separate entries in the source; they are usually repeats but may differ in a detail not shown here. Equal values may be shown once. Read-outs that look alike come from different tables or passages of the source. Values belong to the molecule of their own block, whether it stands above or below them.

How the values were obtained:
tumors = conditions: literature; cited from earlier work
[1] = system: DNA synthesis in HL-60 cells; test: Inhibition of [3H-methyl]dThd incorporation into DNA of HL-60 cells; type: cell-based, human; conditions: for inhibition at 30 µg/mL: Homo sapiens, HL-60, at 0.03 mg/mL, read-out: % Inhibition of Precursor Incorporation, DNA; for inhibition of DNA synthesis, in words: HL-60, 0.03 mg/ml; for % Inhibition of Precursor Incorporation, DNA: at 0.03 mg/mL
Protocol: (§1) For the precursor incorporation studies, each compound (in 0.3% dimethylsulfoxide) was preincubated with HL-60 cells (a human promyelocytic leukemic cell line) 2.2×10^6 /ml, for 15 min prior to the addition of the labeled precursor (obtained from ICN Radiochemicals, Irvine, Calif.) and then incubated for 30 min. The precursors used for incorporation into DNA, RNA and protein were [^3 H-methyl]dThd (1 μCi, 0.15 nmole/ml), [5-^3 H]Cyd (5 μCi, 0.23 nmol/ml), and [2,3,4,5-^3 H]L-Leu (0.5 μCi, 0.004 nmol/ml), respectively. Incorporation of radioactivity in the absence of a plant compound and in the presence of dimethylsulfoxide was used as a control.
Human promyelocytic cells (HL-60) were incubated with [^3 H-methyl]dTHDin the presence and absence of a plant alkaloid.

[2] = system: RNA synthesis in HL-60 cells; test: Inhibition of [5-3H]Cyd incorporation into RNA of HL-60 cells; type: cell-based, human; conditions: for inhibition at 30 µg/mL: Homo sapiens, HL-60, 0.5 h
Protocol: as §1, with “control. The control values for incorporation into DNA, RNA and protein were 8,500, 5,600 and 1,700 cpm/10^6 cells, respectively. The incubation conditions and the procedures for isolating DNA, RNA and protein fractions have been previously described (Chou, T. -C., et al., Cancer Res., 43:3074-3079 (1983)) .” for “control.”
(§2) HL-60 cells were incubated with [5-^3 H]Cyd or [2,3,4,5-^3 H]L-Leu in the presence and absence of alkaloids (0.03 mg/ml) in order to find the effects of the alkaloid on the incorporation of labeled precursors into RNA or protein. […] Over 90% of RNA and protein biosynthesis were inhibited by compounds 11, 16, 17, 22, 28, 29and 30 (Table 1). […] In most cases, the amount required to inhibit precursor incorporation into DNA was less than that to inhibit precursor incorporation into RNA or protein (i.e. DNA synthesis is inhibited most potently).

[3] = system: protein synthesis in HL-60 cells; test: Inhibition of [2,3,4,5-3H]L-Leu incorporation into protein of HL-60 cells; type: cell-based, human; conditions: for inhibition at 30 µg/mL: Homo sapiens; for % Inhibition of Precursor Incorporation, Protein: at 0.03 mg/mL
Protocol: as §1, with “control. The control values for incorporation into DNA, RNA and protein were 8,500, 5,600 and 1,700 cpm/10^6 cells, respectively. The incubation conditions and the procedures for isolating DNA, RNA and protein fractions have been previously described (Chou, T. -C., et al., Cancer Res., 43:3074-3079 (1983)) .” for “control.”
as §2

HL-60 cells = test: HL-60 cell growth inhibition, 72 h; type: cell-based, human; conditions: HL-60, 72 h; for IC50: read-out: Cell Growth Inhibition, IC50
Protocol: For growth inhibition studies, HL-60 cells (1.5×10^5 /ml) were grown in RPMI 1640 media (GIBCO, Grand Island, N.Y.) at 37° C. in humidified 5% CO2 for 72 h. Viable cells were determined using trypan blue exclusion and counted in a hemocytometer. The fractional inhibition for each compound concentration (0.0025-0.05 mg/ml in 0.1% dimethylsulfoxide) was analyzed with the median-effect plot using a computer program (Chou, T. -C and P. Talalay, Adv. Enzyme Regul., 22:27-55 (1984); Chou, J. and T. -C. thou, Dose-Effect analysis with microcomputers: Quantitation of ED50, LD50, synergism, antagonism, low-dose risk, receptor ligand binding and enzyme kinetics. A computer software disk for Apple II series or IBM-PC and manual. Elsevier Science Publishers, Elsevier-BioSoft, Cambridge, United Kingdom (1986)). The median-effect concentration (IC50) was determined automatically for three to five dose-effect levels. Cell growth in the absence of plant compound and in the presence of dimethylsulfoxide was used as a control. Dimethylsulfoxide alone inhibited cell growth 3.9%±1.5% during the 72 h incubation period. Those data with negative values represent activations.

L1210 leukemia = L1210 leukemia survival time evaluation in BDF1 mice; conditions: for Day 6 AWC / MST / N/T (nine day survivors/total mice) / Survival Time, individual mice / % ILS (increase in lifespan): day 1, QDX4 ip; for % ILS (increase in lifespan): 25% or greater indicates activity; for antileukemic activity, in words: L1210, BDF mice, low doses, ip
[4] = at 0.03 mg/mL, read-out: % Inhibition of Precursor Incorporation, RNA
[5] = HL-60, at 0.03 mg/mL, read-out: % Inhibition of Precursor Incorporation, Protein

Molecule: CN(C)CCOc1cc2c(c3c1c(=O)c1ccccc1n3C)C=CC(C)(C)O2 [Compound 2, O-(dimethylaminoethyl)noracronycine]
antitumor activity, in words (tumors): significant antitumor activity

Molecule: COc1cc(O)c2c(=O)c3cccc(OC)c3n(C)c2c1OC [Compound 17, 5-O-Methyl-citrusinine-I]
inhibition at 30 µg/mL [1]: 93.4% | inhibition at 30 µg/mL [2, 4]: 96.4% | inhibition at 30 µg/mL [3, 5]: 93% | cell growth inhibition, in words (HL-60 cells): significant activity against leukemic cells in vitro | IC50 (HL-60 cells; Homo sapiens): 2.7 µg/mL and 8.6 µM | Day 6 AWC (L1210 leukemia; 6.25 mg/kg): +1.8 g | MST (L1210 leukemia; 6.25 mg/kg): 7.0 | N/T (nine day survivors/total mice) (L1210 leukemia; 6.25 mg/kg): 0/2 | Survival Time, individual mice (L1210 leukemia; 6.25 mg/kg): 7 | % ILS (increase in lifespan) (L1210 leukemia; 6.25 mg/kg): 0% | Day 6 AWC (L1210 leukemia; 12.5 mg/kg): +1.5 g | MST (L1210 leukemia; 12.5 mg/kg): 7.0 | N/T (nine day survivors/total mice) (L1210 leukemia; 12.5 mg/kg): 0/2 | Survival Time, individual mice (L1210 leukemia; 12.5 mg/kg): 7 | % ILS (increase in lifespan) (L1210 leukemia; 12.5 mg/kg): 0% | antileukemic activity, in words (L1210 leukemia): not active

Molecule: CC1(C)C=Cc2c(cc(O)c3c(=O)c4cccc(O)c4[nH]c23)O1 [Compound 34, Atalaphyllidine]
inhibition at 30 µg/mL [1]: 78.9% | inhibition at 30 µg/mL ([2]; read-out: % Inhibition of Precursor Incorporation, RNA, at 0.03 mg/mL): 94.8% | inhibition at 30 µg/mL ([3]; HL-60, read-out: % Inhibition of Precursor Incorporation, Protein, at 0.03 mg/mL): 82.9% | cell growth inhibition, in words (HL-60 cells): comparable activity | IC50 (HL-60 cells; Homo sapiens): 1.3 µg/mL and 4.2 µM | Day 6 AWC (L1210 leukemia; 6.25 mg/kg): +1.7 g | MST (L1210 leukemia; 6.25 mg/kg): 7.0 | N/T (nine day survivors/total mice) (L1210 leukemia; 6.25 mg/kg): 0/2 | Survival Time, individual mice (L1210 leukemia; 6.25 mg/kg): 7 | % ILS (increase in lifespan) (L1210 leukemia; 6.25 mg/kg): 0% | Day 6 AWC (L1210 leukemia; 25 mg/kg): +1.5 g | MST (L1210 leukemia; 25 mg/kg): 7.5 | N/T (nine day survivors/total mice) (L1210 leukemia; 25 mg/kg): 0/2 | % ILS (increase in lifespan) (L1210 leukemia; 25 mg/kg): 7% | Survival Time, individual mice (L1210 leukemia; 25 mg/kg, listed as SK 32090): 7 and 8 | antileukemic activity, in words (L1210 leukemia): evidence of antileukemic activity

Molecule: CC(C)=CCc1c2c(c3[nH]c4ccccc4c(=O)c3c1O)C=CC(C)(C)O2 [Compound 36, Severifoline]
inhibition at 30 µg/mL [1]: 20% | IC50 (HL-60 cells; Homo sapiens): > 40 µg/mL and > 111 µM | antitumor activity, in words (tumors): no antitumor activity

Molecule: Cn1c2c(O)cccc2c(=O)c2c(O)cc3c(c21)C=CC(C)(C)O3 [Compound 37, 11-Hydroxy-noracronycine]
inhibition at 30 µg/mL [1]: 98.6% | inhibition at 30 µg/mL [2, 4]: 96.6% | inhibition at 30 µg/mL [3, 5]: 95.3% | cell growth inhibition, in words (HL-60 cells): comparable activity | IC50 (HL-60 cells; Homo sapiens): 2.3 µg/mL and 7.1 µM | Day 6 AWC (L1210 leukemia; 6.25 mg/kg): +2.0 g | MST (L1210 leukemia; 6.25 mg/kg): 7.0 | N/T (nine day survivors/total mice) (L1210 leukemia; 6.25 mg/kg): 0/2 | Survival Time, individual mice (L1210 leukemia; 6.25 mg/kg): 7 | % ILS (increase in lifespan) (L1210 leukemia; 6.25 mg/kg): 0% | Day 6 AWC (L1210 leukemia; 25 mg/kg): +1.8 g | MST (L1210 leukemia; 25 mg/kg): 7.0 | N/T (nine day survivors/total mice) (L1210 leukemia; 25 mg/kg): 0/2 | Survival Time, individual mice (L1210 leukemia; 25 mg/kg): 7 | % ILS (increase in lifespan) (L1210 leukemia; 25 mg/kg): 0% | antileukemic activity, in words (L1210 leukemia): not active

Molecule: CC(=O)Oc1cccc2c(=O)c3c(O)c(CC=C(C)C)c4c(c3n(C)c12)C=CC(C)(C)O4 [Compound 47, 11-O-Acetyl-N-methyl severifoline]
inhibition at 30 µg/mL [1]: 58.4% | inhibition at 30 µg/mL [2, 4]: 16.2% | inhibition at 30 µg/mL [3, 5]: 36.2% | IC50 (HL-60 cells; Homo sapiens): 8.8 µg/mL and 20.3 µM

Molecule: C=C(C)C1CCC2(C)CC1c1c(cc3c(c1O)c(=O)c1cccc(O)c1n3C)O2 (stereo not drawn) [Compound 50, Cycloglyco-foline]
inhibition of DNA synthesis, in words [1]: inhibited DNA synthesis significantly | inhibition at 30 µg/mL [1]: 98.7% | inhibition of RNA biosynthesis, in words ([2]; HL-60, 0.03 mg/ml): The same results were obtained | inhibition at 30 µg/mL [2, 4]: 55.7% | inhibition of protein biosynthesis, in words ([3]; HL-60, 0.03 mg/ml): The same results were obtained | inhibition at 30 µg/mL [3, 5]: 92.1% | cell growth inhibition, in words (HL-60 cells): better activity than that of acronycine | IC50 (HL-60 cells; Homo sapiens): 5.8 µg/mL and 14.8 µM | Day 6 AWC (L1210 leukemia; 12.5 mg/kg): +1.8 g | MST (L1210 leukemia; 12.5 mg/kg): 8.5 | N/T (nine day survivors/total mice) (L1210 leukemia; 12.5 mg/kg): 0/2 | % ILS (increase in lifespan) (L1210 leukemia; 12.5 mg/kg): 21% | Survival Time, individual mice (L1210 leukemia; 12.5 mg/kg, listed as Sk 32091): 8 and 9

The next lines start with results.

IC50 (HL-60 cells; Homo sapiens): 3.1 µg/mL and 8.8 µM
Molecule: COc1c2c(c(O)c3c(=O)c4cccc(O)c4n(C)c13)C=CC(C)(C)O2 [Compound 48, Pyranofoline]
inhibition of DNA synthesis, in words [1]: inhibited DNA synthesis significantly | inhibition at 30 µg/mL [1]: 98.8% | inhibition at 30 µg/mL [2, 4]: 97.2% | inhibition at 30 µg/mL [3, 5]: 96.4% | cell growth inhibition, in words (HL-60 cells): better activity than that of acronycine

Cell Growth Inhibition, IC50 (HL-60 cells): > 40 µg/mL | IC50 (HL-60 cells): > 66.4 µM
Molecule: CC(C)=CCc1c(O)c(C2CC(C)(C)Oc3cc(O)c4c(=O)c5ccccc5[nH]c4c32)c(O)c2c(=O)c3ccccc3n(C)c12 (stereo not drawn) [Compound 52, Glycobismine-A]
inhibition of DNA synthesis, in words [1]: not active | % Inhibition of Precursor Incorporation, DNA [1]: -27.8% | % Inhibition of Precursor Incorporation, RNA ([2]; at 0.03 mg/mL): -57.4% | % Inhibition of Precursor Incorporation, Protein [3]: -13.2%

Cell Growth Inhibition, IC50 (HL-60 cells): > 40 µg/mL | IC50 (HL-60 cells): > 124 µM
Molecule: Furofoline-II [Compound 51]
inhibition of DNA synthesis, in words [1]: not active | % Inhibition of Precursor Incorporation, DNA [1]: 13.1% | % Inhibition of Precursor Incorporation, RNA ([2]; at 0.03 mg/mL): -46.3% | % Inhibition of Precursor Incorporation, Protein [3]: 19.5%

Cell Growth Inhibition, IC50 (HL-60 cells): 18.7 µg/mL | IC50 (HL-60 cells): 47.1 µM
Molecule: Methoxymethyl-pyranofoline [Compound 49]
inhibition of DNA synthesis, in words [1]: inhibited DNA synthesis significantly | % Inhibition of Precursor Incorporation, DNA [1]: 85.3% | % Inhibition of Precursor Incorporation, RNA ([2]; at 0.03 mg/mL): 70.1% | % Inhibition of Precursor Incorporation, Protein [3]: 87.3%
